Test results: publication PMC12169104, “Towards the development of supramolecular self-associating amphiphiles as antibiofilm agents against Pseudomonas aeruginosa and Candida albicans biofilms” (Journal of Materials Chemistry. B, 2025)
Values joined by “and” are separate entries in the source; they are usually repeats but may differ in a detail not shown here. Equal entries are not always repeated. Marks after values point to notes of the source that are not given here.

Key:
[1] = 1H NMR DOSY, hydrodynamic diameter of SSA anion; type: physicochemical; settings: DMSO-d6/0.5 % H2O, 298 K
Text: (§1) The self-associative properties of SSAs 1–5, and co-formulations a–j, were studied using previously published methodologies, the results of which are summarised in Table 1.[44,45] Initially, we quantified the strength of homogeneous SSA anion self-association events, to confirm the effect of the squaramide – (thio)urea substitution. […] Complimentary ^1H NMR DOSY experiments conducted in DMSO-d6 0.5% H2O solutions at 298 K confirmed the SSA anion and cation components to diffuse at different rates, providing supporting evidence towards the lack of any strong ion pairing interactions between the SSA anionic and cationic components under these experimental conditions. […] The formation of SSA anionic dimers has also been shown in the solid state through single crystal X-ray diffraction experiments.[42,43,46] […] Here the SSA anion dimer is stabilised through the formation of four intermolecular squaramide-anion hydrogen bonds. Proton NMR spectroscopy dilution study data, obtained from a DMSO-d6 0.5% H2O solution, were then fitted to both the EK (the equal K single component linear self-associative or dimerization model) and CoEK (the cooperative equal K single component linear self-associative or dimerization model) self-association models using Bindfit v0.5.[47,48] […] The dimerization constants calculated confirm that substitution of the sulfonate ion (1 and 3) for the carboxylate ion (2) increase Kdim by approximately 50-fold. However, substituting the thiourea (2) for the squaramide (5) functionality increases the Kdim by a further 70-fold. Therefore, confirming our initial hypothesis, that incorporating the squaramide residue within the SSA anion structure would increase the strength of SSA anion self-association events.

[2] = Membrane fluidity fluorescence polarization (DPH) assay; settings: SSA 1.5 mM, HEPES buffer pH 7.4, 298 K, n = 3, error = SD
Text: Next, we sought to understand the effects of 1, 2, 4 and 5 and a, c, d, f, g, j on synthetic vesicle phospholipid membrane fluidity using a fluorescence polarization (FP) assay.[52] Here, the fluorescent reporter dye 1,6-diphenyl-1,3,5-hexatriene (DPH) is incorporated into the vesicles phospholipid bilayer. As membrane fluidity is increased, the DPH reporter dye moves more freely within the phospholipid bilayer environment, resulting in a decreased FP value. However, should the membrane become more rigid, the movement of the dye is decreased and the FP value increases. As 3 is intrinsically fluorescent and overlaps with the fluorescence excitation/emission properties of the DPH, this SSA and co-formulations incorporating this compound were not included. […]
Preparation of vesicles: All lipids were purchased as powder stocks from Avanti Polar Lipids. Lipid vesicles were prepared according to standard procedures. Each phospholipid (~ 20 mg) was dissolved in chloroform: methanol 3:1 (~ 10 mL) and the solvent was removed under reduced pressure. The thin film of dried lipid was further dried in vacuo overnight. Lipid films were resuspended in the desired buffer and subjected to 10 freeze-thaw cycles in liquid nitrogen and extruded 19 times through a 200 nm polycarbonate membrane. […]
Preparation of DPH fluorescent labelled vesicles: Lipid films were resuspended in buffer (150 mM KCl, 10 mM HEPES, pH 7.4, 2 mM EGTA) and subjected to 10 freeze-thaw cycles in liquid nitrogen and extruded 20 times through a 200 nm polycarbonate membrane. For fluorescent labelling, the desired vesicles were pre-incubated with DPH (10 µM) at 60 °C for 1 hour.
Membrane fluidity assay: Black bottom 96-well plates were prepared by serially diluting desired SSA in a EtOH: H2O 1:19 solution across the plate, the appropriate DPH labelled vesicles (100 µL, 60 µM) were added to each well to give a total well volume of 200 µL. FP measurements were taken at 25 °C using a 355 nm filter for excitation and a […] for emission. The DPH labelled vesicles were set to a FP value of 100 mP. Data were acquired in endpoint mode. All experiments were repeated in triplicate to ensure experimental reproducibility.

[3] = Quantitative 1H NMR spectroscopy (higher order self-association); type: physicochemical; settings: D2O:EtOH 19:1, 2.78 mM, 298 K; proportion of compound to become NMR silent
[4] = 1H NMR dilution study, dimerization constant (EK model, Bindfit v0.5); type: physicochemical; settings: DMSO-d6/0.5% H2O, SSA anion dimerization
Text: as §1

[5] = Membrane permeability and adhesion assay (1H CPMG NMR; PF and MAF); settings: SSA anion(s), 200 μM, 298 K; for MAF (membrane adhesion factor): error ±0.05 unless stated, MAF < 1 suggests adhesion; for PF (membrane permeation factor): error ±0.1 unless stated, PF > 1 suggests permeable
Text: Finally, in line with our previous work, we moved to characterise the membrane adhesion and permeation events of 1–5 and co-formulations a–j with PE : PG 1 : 1 synthetic phospholipid vesicles.[53] This vesicle composition was prioritised for further analysis as this composition acts as a model for an AMR resistant strain of the ESKAPE pathogen P. aeruginosa,[54,55] categorised as high priority by the WHO.[33] As summarised in Table 4, membrane permeation (PF) and membrane adhesion factors (MAF) for the SSA anionic components were calculated through the use of ^1H CPMG NMR spectroscopy experiments, using vesicles produced by extrusion through a 1000 nm polycarbonate membrane.
Here the lower the MAF, the stronger the adhesion of the molecule to the surface of the phospholipid membrane. […] A PF value of 1 or above provides evidence of SSA permeation. The greater this value above 1, the greater the membrane permeation potential of a compound. […]
Membrane permeability and adhesion assay, determining membrane adhesion factors (MAF) and permeation factors (PF): Lipid vesicles of DOPE and PG, in a 1:1 ratio by weight were prepared as described in ‘preparation of vesicles’ with one alteration. Here vesicles were extruded 21 times through a 1000 nm polycarbonate membrane. NMR samples were prepared containing: SSA ( 200 µM), 95% HEPES buffer (HEPES (10 mM), NaCl (10 mM)) and 5% D 2O, and sodium trimethylsilylpropanesulfonate - DSS (1 µM). In order to calculate the PF and MAF the paramagnetic relaxation enhancement agent (PRE), gadodiamide (1 mM) was added to the NMR mixture. Where lipid vesicles were present in the NMR mixture, vesi cles were added at a concentration of 0.1 mg/mL.
All 1H CPMG NMR spectra were collected with a spin -lock time of 150 mS on a Bruker Avance III spectrometer equipped with a cold probe at a proton frequency of 600 MHz and recorded at 298 K.
Peak intensities were measured using MestReNova (Mestrelab Research). The MAF and PF were determined using previously published method. 3 For individual SSAs, MAF and PF were calculated using all aromatic CH resonances. For SSA co -formulations an average MAF and PF were calculated using all aromatic CH resonances. For individual components of the SSA co -formulations, the resonances for the different SSA anions were treated independently of one another.

[6] = PE:PG 1:1 vesicles with DPH (10 μM)
[7] = PE:PG 3:1 vesicles with DPH (10 μM)

| SMILES | dH (nm) of SSA anion, 1H NMR DOSY [1] [nm] | Quantitative 1H NMR (%) Anion [3] [%] | Quantitative 1H NMR (%) Cation [3] [%] | Kdim [4] | Average FP values [2, 6] | Average FP values [2, 7] | Average FP values ([2]; PG vesicles with DPH (10 μM)) | MAF (membrane adhesion factor) [5] | PF (membrane permeation factor) [5] |
| --- | --- | --- | --- | --- | --- | --- | --- | --- | --- |
| O=S(=O)(O)CCCNC(=S)Nc1ccc(C(F)(F)F)cc1 [SSA 1] | 1.50 | 33 | 31 | 3 M⁻¹ and 2.6 M⁻¹ | 50 ± 1 | −9 ± 3 | 29 ± 1 | 0.94 | 1.01 |
| O=C(O)CNC(=S)Nc1ccc(C(F)(F)F)cc1 [SSA 2] | 1.42 | 43 | 39 | 105 M⁻¹ | −1 ± 1 | −40 ± 0 | 11 ± 8 | 0.88 | 0.85 |
| Cc1ccc2nc(-c3ccc(NC(=O)NCS(=O)(=O)O)cc3)sc2c1 [SSA 3] | 1.64 | 37 | 37 | 3 M⁻¹ and 2.7 M⁻¹ |  |  |  | 0.00 | 0.00 |

More lines, main results first:

| dH (nm) of SSA anion, 1H NMR DOSY [1] [nm] | Quantitative 1H NMR (%) Anion [3] [%] | Quantitative 1H NMR (%) Cation [3] [%] | Kdim [4] | SMILES | Average FP values [2, 6] | Average FP values [2, 7] | Average FP values ([2]; PG vesicles with DPH (10 μM)) | MAF (membrane adhesion factor) [5] | PF (membrane permeation factor) [5] |
| --- | --- | --- | --- | --- | --- | --- | --- | --- | --- |
| 1.65 | 44 | 39 |  | O=c1c(NCCCS(=O)(=O)O)c(Nc2ccc(C(F)(F)F)cc2)c1=O [SSA 4] | 151 ± 5 | 73 ± 14 | 150 ± 8 | 0.38 | 1.48 ^a |
| 1.61 | 33 | 37 | 7636 M⁻¹ | O=C(O)CNc1c(Nc2ccc(C(F)(F)F)cc2)c(=O)c1=O [SSA 5] | 146 ± 4 | 106 ± 7 | 152 ± 6 | 0.38 | 0.67 |
